In general, EC50 refers to the concentration giving half of the maximal effect.

Holding throughout (assay): SelectScreen kinase specificity survey
Assay type in all cases: biochemical

In test [1] the target is T1, STK22B (TSSK2) (Homo sapiens, UniProt Q96PF2).
T1 construct: purchased Invitrogen, Inc. (SelectScreen platform)
Particulars: estimated, abridged dose response curve, read-out: Kinase inhibitory activity EC50. A digest of the protocol:
(§1)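 First, uninhibited controls recorded the baseline substrate phosphorylation with 100 micromolar ATP. Next, putative inhibitor was added at 5 graded levels. Finally, the dose-response data were fitted to a four-parameter Hill equation to estimate EC50.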

Test [2] addresses T2, MINK1 (ZC3) (Homo sapiens, UniProt Q8N4C8).
T2 construct: purchased Invitrogen (SelectScreen platform)
The note with it: estimated, abridged dose response curve, read-out: Kinase inhibitory activity EC50. A digest of the protocol:
as §1

In test [3] the target is T3, INSRR (IRR) (Homo sapiens, UniProt P14616).
T3 construct: purchased Invitrogen (SelectScreen platform)
The note with it: estimated, abridged dose response curve, read-out: Kinase inhibitory activity EC50. A digest of the protocol: as §1

Test [4] deals with T4, FER (Homo sapiens, UniProt P16591).
T4 construct: purchased Invitrogen (SelectScreen service)
Particulars: estimated, abridged dose response curve, read-out: Kinase inhibitory activity EC50. A digest of the protocol: as §1

Test [5] deals with T5, SRC (Homo sapiens, UniProt P12931).
T5 construct: purchased Invitrogen (SelectScreen)
Particulars: estimated, abridged dose response curve, read-out: Kinase inhibitory activity EC50. A digest of the protocol: as §1

Test [6] has as its target T6, AKT3 (PKB gamma) (Homo sapiens, UniProt Q9Y243).
T6 construct: purchased Invitrogen (SelectScreen platform)
Particulars: estimated, abridged dose response curve, read-out: Kinase inhibitory activity EC50. A digest of the protocol:
as §1

Test [7] has as its target T7, ADRBK1 (BARK1, GRK2) (Homo sapiens, UniProt P25098).
T7 construct: purchased Invitrogen (SelectScreen platform)
A digest of the protocol:
as §1

Test [8] addresses T8, ROCK1 (Homo sapiens, UniProt Q13464).
T8 construct: purchased Invitrogen (SelectScreen platform)
Particulars: estimated, abridged dose response curve, read-out: Kinase inhibitory activity EC50. A digest of the protocol: as §1

In test [9] the target is T9, BRAF (Homo sapiens, UniProt P15056).
T9 construct: purchased Invitrogen, Inc. (SelectScreen platform)
Particulars: estimated, abridged dose response curve, read-out: Kinase inhibitory activity EC50. A digest of the protocol: as §1

Test [10] addresses T10, PDGFRA V561D (Homo sapiens, UniProt P16234, V561D).
T10 construct: purchased Invitrogen (SelectScreen platform)
Particulars: estimated, abridged dose response curve, read-out: Kinase inhibitory activity EC50. A digest of the protocol: as §1

The target in test [11] is T11, MAP2K2 (MEK2) (Homo sapiens, UniProt P36507).
T11 construct: purchased Invitrogen (SelectScreen platform)
The note with it: estimated, abridged dose response curve, read-out: Kinase inhibitory activity EC50. A digest of the protocol:
as §1

Test [12] deals with T12, PLK2 (Homo sapiens, UniProt Q9NYY3).
T12 construct: purchased Invitrogen, Inc. (SelectScreen service)
Particulars: estimated, abridged dose response curve, read-out: Kinase inhibitory activity EC50. A digest of the protocol: as §1

In test [13] the target is T13, PRKCB1 (PKC beta I) (Homo sapiens, UniProt P05771).
T13 construct: purchased Invitrogen (SelectScreen platform)
Particulars: estimated, abridged dose response curve, read-out: Kinase inhibitory activity EC50. A digest of the protocol: as §1

Test [14] concerns the target T14, STK23 (MSSK1) (Homo sapiens, UniProt Q9UPE1).
T14 construct: purchased Invitrogen, Inc. (SelectScreen service)
The note with it: estimated, abridged dose response curve, read-out: Kinase inhibitory activity EC50. A digest of the protocol:
as §1

For test [15], the target named is T15, FLT3 D835Y (Homo sapiens, UniProt P36888, D835Y).
T15 construct: purchased Invitrogen (SelectScreen platform)
T15 sequence (P36888 27-993 D835Y): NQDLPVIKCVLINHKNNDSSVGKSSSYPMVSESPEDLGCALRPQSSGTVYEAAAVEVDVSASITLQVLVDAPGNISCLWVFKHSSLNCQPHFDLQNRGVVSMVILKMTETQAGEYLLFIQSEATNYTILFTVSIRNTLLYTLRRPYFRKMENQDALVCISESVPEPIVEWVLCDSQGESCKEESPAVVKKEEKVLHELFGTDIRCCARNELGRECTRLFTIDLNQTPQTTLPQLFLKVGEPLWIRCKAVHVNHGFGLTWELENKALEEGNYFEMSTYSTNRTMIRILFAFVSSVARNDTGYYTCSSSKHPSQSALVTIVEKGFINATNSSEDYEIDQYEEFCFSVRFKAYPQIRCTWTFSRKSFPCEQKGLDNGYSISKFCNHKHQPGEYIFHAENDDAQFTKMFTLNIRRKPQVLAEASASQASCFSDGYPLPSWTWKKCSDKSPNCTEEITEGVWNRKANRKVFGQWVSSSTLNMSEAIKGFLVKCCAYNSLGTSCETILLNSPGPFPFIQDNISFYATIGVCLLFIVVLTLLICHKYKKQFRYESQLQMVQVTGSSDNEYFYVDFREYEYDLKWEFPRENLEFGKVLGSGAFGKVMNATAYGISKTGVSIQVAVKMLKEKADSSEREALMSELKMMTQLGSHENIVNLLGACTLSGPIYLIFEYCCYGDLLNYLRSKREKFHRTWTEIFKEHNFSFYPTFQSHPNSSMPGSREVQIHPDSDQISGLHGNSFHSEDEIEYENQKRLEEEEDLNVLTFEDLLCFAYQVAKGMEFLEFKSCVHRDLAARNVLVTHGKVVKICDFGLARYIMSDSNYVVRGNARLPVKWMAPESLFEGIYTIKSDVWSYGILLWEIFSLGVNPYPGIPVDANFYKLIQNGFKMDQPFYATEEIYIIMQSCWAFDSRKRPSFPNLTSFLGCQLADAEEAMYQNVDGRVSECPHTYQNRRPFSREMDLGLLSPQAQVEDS
Particulars: estimated, abridged dose response curve, read-out: Kinase inhibitory activity EC50. A digest of the protocol: as §1

Where two headings read alike, the source gives them in different places. A value given as a limit tells only on which side of the number the result lay.

T14 sequence (Q9UPE1 whole entry): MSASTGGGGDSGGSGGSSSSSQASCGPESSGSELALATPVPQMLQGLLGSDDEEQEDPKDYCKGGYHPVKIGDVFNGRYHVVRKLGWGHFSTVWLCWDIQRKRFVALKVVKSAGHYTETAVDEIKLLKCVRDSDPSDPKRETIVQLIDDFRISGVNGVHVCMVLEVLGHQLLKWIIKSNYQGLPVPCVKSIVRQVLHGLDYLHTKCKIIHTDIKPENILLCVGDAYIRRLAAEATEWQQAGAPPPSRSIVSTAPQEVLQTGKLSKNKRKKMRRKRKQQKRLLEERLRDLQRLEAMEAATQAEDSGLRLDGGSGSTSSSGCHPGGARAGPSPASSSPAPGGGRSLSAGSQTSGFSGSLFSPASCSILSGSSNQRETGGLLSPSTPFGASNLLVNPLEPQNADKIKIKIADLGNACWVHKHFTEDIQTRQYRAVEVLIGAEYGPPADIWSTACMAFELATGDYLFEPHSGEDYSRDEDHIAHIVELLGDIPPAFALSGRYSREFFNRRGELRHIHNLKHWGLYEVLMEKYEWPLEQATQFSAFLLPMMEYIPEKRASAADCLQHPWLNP
T1 sequence (Q96PF2 whole entry): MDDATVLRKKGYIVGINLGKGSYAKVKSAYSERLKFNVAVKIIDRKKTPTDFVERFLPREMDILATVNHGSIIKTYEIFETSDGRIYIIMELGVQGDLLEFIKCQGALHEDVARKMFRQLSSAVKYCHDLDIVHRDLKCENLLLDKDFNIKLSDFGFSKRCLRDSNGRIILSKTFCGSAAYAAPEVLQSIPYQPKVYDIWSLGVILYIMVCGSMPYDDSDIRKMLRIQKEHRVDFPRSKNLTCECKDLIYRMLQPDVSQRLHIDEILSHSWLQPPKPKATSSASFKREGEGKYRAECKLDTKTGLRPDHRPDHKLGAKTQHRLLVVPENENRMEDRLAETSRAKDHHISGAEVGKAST
T7 sequence (P25098 whole entry): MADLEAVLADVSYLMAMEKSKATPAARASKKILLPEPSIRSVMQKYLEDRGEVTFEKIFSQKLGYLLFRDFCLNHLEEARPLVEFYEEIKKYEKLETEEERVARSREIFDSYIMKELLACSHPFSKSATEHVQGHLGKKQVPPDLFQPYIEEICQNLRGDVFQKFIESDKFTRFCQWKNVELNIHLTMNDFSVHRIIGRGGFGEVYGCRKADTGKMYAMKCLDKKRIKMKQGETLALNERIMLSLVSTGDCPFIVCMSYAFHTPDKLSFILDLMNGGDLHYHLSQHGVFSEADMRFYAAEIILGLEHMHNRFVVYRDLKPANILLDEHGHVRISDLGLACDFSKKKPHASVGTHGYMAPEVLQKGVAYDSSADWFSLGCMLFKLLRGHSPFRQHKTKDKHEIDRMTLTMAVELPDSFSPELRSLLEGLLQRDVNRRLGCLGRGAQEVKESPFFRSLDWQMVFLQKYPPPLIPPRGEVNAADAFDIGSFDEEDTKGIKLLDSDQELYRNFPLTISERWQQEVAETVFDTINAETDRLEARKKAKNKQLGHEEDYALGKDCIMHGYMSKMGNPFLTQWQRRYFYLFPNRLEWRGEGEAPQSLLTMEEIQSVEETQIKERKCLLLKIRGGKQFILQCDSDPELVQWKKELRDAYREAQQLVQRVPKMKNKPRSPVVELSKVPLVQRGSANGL
T10 sequence (P16234 24-1089 V561D): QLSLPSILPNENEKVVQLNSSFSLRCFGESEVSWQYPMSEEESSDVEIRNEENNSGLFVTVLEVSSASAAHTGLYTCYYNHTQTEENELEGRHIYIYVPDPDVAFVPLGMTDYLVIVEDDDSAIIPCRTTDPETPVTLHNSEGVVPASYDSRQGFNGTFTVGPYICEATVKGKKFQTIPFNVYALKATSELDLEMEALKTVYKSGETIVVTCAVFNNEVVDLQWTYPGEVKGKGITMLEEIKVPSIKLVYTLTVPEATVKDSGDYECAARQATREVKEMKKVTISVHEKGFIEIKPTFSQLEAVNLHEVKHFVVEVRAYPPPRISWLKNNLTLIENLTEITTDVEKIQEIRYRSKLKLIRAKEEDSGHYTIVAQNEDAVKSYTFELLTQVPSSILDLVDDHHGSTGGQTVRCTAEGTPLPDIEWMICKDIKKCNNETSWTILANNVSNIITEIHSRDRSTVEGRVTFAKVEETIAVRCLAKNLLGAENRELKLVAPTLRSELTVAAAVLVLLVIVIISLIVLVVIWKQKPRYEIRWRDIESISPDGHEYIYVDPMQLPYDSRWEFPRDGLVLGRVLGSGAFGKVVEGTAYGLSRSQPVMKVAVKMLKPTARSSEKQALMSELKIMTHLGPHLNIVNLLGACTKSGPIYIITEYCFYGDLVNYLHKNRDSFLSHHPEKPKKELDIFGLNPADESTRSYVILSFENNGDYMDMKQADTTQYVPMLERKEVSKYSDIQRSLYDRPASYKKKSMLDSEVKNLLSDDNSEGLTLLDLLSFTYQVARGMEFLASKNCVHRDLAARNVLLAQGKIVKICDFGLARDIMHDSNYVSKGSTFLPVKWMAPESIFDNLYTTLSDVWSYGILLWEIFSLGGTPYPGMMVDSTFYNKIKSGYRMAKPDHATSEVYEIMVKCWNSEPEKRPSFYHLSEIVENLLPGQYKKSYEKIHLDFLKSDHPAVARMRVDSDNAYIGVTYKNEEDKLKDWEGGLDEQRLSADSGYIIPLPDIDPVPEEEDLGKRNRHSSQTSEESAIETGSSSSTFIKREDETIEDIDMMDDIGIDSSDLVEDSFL
T12 sequence (Q9NYY3 whole entry): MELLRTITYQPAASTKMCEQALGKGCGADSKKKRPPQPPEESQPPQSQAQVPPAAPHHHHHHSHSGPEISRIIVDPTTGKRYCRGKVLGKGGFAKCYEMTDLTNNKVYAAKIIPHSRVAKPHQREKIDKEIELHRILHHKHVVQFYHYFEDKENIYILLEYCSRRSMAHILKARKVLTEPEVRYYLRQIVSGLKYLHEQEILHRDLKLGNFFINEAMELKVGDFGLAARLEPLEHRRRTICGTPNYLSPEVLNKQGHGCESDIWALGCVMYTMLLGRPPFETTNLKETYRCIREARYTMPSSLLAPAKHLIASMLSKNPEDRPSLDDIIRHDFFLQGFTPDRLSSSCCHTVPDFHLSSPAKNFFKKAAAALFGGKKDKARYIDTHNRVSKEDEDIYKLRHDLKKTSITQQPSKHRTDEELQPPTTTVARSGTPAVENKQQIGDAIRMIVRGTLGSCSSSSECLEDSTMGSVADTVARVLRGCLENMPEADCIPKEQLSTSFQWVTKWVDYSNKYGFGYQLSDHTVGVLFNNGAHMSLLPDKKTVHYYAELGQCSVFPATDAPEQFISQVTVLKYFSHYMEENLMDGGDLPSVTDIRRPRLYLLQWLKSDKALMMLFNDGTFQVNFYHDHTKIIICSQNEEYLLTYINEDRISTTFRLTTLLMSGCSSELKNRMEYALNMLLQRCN
T13 sequence (P05771 whole entry): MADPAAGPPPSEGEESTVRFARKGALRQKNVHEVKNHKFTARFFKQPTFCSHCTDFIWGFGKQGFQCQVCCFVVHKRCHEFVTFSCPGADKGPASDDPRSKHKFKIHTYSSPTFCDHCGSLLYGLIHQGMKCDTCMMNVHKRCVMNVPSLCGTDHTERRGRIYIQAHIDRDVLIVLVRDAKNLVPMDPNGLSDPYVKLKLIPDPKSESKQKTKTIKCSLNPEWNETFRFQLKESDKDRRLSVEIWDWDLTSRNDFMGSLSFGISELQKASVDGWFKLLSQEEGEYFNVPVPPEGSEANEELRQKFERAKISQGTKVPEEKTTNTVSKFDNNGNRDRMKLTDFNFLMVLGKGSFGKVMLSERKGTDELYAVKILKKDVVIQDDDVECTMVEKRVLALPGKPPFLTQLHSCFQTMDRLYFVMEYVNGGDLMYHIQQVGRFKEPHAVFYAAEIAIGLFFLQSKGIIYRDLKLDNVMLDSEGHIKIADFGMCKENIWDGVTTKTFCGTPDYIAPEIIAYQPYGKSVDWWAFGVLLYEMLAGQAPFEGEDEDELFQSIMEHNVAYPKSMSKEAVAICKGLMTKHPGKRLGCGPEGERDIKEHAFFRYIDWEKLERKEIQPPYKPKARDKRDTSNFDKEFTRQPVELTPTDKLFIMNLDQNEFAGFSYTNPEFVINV
T11 sequence (P36507 whole entry): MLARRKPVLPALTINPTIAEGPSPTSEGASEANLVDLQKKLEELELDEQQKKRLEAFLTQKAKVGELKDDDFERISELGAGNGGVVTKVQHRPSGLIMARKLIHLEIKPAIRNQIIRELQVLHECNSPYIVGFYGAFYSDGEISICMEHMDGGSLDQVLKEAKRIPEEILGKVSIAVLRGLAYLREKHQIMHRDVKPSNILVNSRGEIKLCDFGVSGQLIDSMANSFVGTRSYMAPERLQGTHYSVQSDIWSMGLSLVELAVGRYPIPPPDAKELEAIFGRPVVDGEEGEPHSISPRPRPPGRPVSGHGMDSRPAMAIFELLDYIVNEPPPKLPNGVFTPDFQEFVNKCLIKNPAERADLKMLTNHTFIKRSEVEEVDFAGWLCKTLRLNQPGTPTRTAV
T6 sequence (Q9Y243 whole entry): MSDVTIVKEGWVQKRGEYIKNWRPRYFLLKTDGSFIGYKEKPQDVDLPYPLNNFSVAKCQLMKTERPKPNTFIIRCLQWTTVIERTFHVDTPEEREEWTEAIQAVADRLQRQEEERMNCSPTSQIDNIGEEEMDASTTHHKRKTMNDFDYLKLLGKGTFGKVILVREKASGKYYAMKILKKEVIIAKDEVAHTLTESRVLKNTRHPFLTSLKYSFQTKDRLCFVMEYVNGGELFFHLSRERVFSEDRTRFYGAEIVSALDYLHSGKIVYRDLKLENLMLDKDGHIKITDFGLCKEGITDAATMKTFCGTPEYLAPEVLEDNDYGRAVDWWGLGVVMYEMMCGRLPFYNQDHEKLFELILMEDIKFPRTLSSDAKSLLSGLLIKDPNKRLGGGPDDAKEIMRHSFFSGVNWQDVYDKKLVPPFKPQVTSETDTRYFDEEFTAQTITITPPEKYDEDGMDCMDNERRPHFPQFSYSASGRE

Turning to `CN(C)CCCNc1ccc2ncn3c4ccc5[nH]ncc5c4c(=O)c1c23` [Compound (IV)], the EC50 is over 5 µM in test [1]; 1.36 µM in test [2]; 1.15 µM in test [3]; over 5 µM in test [4]; 0.437 µM in test [5]; over 5 µM in [6]. The EC50 in [7] (ADRBK1 (BARK1, GRK2), estimated, abridged dose response curve, read-out: Kinase inhibitory activity EC50) is over 5 µM; in test [8], 0.487 µM; in test [9], 1.44 µM; in test [10], 0.06 µM; in test [11] it was over 5 µM; in test [12], over 5 µM. The EC50 was over 5 µM in test [13], over 5 µM in test [14] and 0.001 µM in [15].
For the molecule `CCN(CC)CCNc1ccc2ncn3c4ccc(O)cc4c(=O)c1c23` [Symadex, 5-(2-(diethylamino)ethylamino)-8-hydroxy-6H-imidazo[4,5,1-de]acridin-6-one, reference compound], the EC50 in test [1] was over 5 µM; in test [2], 1.09 µM; in test [3], over 5 µM; in [4], over 5 µM; in test [5] it was 4.41 µM; in test [6], over 5 µM. The EC50 in test [7] was over 5 µM; in test [8], over 5 µM; in test [9], 4.45 µM; in test [10], 0.083 µM; in test [11], over 5 µM; in test [12], over 5 µM. In addition, the EC50 in [13] was over 5 µM; in test [14], over 5 µM; in test [15], 0.003 µM.
